Experimental data taken from publication PMC5805504 (Oncotarget, 2017).
Where two headings read alike, the source gives them in different places.

Columns and labels:
[1] = tested on: MX1 human xenograft breast cancer model; experiment: MX1 in vivo xenograft cancer model; set-up: species or system athymic nude mice
Protocol: (§1) Female athymic nude mice from Charles River weighing 22 to 26 grams were implanted subcutaneously in the flank with 1×10^7 cells in a 1:1 (v/v) mixture in matrigel. […] Tumor volumes and body weight were determined by electronic caliper every 2 to 3 days. Repeat measures analysis was utilized with log transformed data and the auto-regression (AR) method to determine the overall p-value for galunisertib growth curves relative to the vehicle control in both tumor models. […]

pSMAD in NIH3T3 cells = experiment: pSMAD inhibition in NIH3T3 cells; type: cell-based; details: Mus musculus, read-out: IC50, inhibition of pSMAD, data not shown
[2] = tested on: CEREP diversity panel, 65 targets; experiment: CEREP diversity panel; details: at 10 μM, duplicate; data not shown
[3] = tested on: Calu6 human xenograft lung cancer model; experiment: Calu6 in vivo xenograft cancer model; set-up: species or system athymic nude mice
Protocol: as §1

[4] = set-up: method as in PMID 25424852; details: patients with glioblastoma; cited from earlier work
U87MG xenograft tumors = experiment: U87MG glioblastoma xenograft tumor model; details: galunisertib 25 mg/kg BID oral; lomustine (CCNU) 30 mg/kg single intraperitoneal dose; alone or combined
Protocol: Five million U87MG glioblastoma cells, obtained from ATCC (Manassas, VA), were injected subcutaneously in the flank of 8- to 9-week old, female, athymic nude mice (Harlan, Indianapolis, IN) in a 1:1 mixture of 1x PBS and matrigel (Becton Dickinson, Bedford, MA). Mice were monitored daily for palpable tumors. […] The tumor volumes were recorded at regular intervals following treatment.

U87MG glioblastoma cells = experiment: U87MG in vitro cell migration assay; type: cell-based, human
Protocol: U87MG cells were cultured in minimum essential medium (MEM) supplemented with 10% fetal bovine serum (FBS). Eight micron migration plates (24 well) were coated with denatured collagen I (BD, cat# 354326) at 10 μg/ml. Following overnight incubation at 4°C, the lower chambers were washed three times with phosphate buffered saline (PBS) followed by blocking with 1% bovine serum albumin (BSA) for 1 hour. The chambers were washed 3 times in PBS then 200 μl of migration buffer [MEM containing 5% blocking solution (Sigma, cat# 2393), […]] was added. […] After 1 hour of culture, 10 ng/ml of recombinant human (rh) TGFβ1 was added to upper chambers and cells were allowed to migrate in a 37°C incubator for 48 hours. The non-migrated cells were aspirated and wiped off the upper chamber with a cotton swab. The inserts were washed 3 times with PBS and the chambers transferred to new […]. The chambers were fixed with 500 μl of 10% neutral buffered formalin (NBF) for 20 minutes followed by three washes with PBS. The cells were stained with Hoechst at 1:10,000 for 20 minutes in the dark then washed three times with PBS. The membranes were cut with a scalpel, placed on a slide and the pictures were taken using Eclipse 90i Microscope. Image Pro-Analyzer 7.0 was used for analysis of migrated cells.

[5] = tested on: TGFβ-responsive p3TP-Lux reporter in Mv1Lu cells; experiment: Mink lung epithelial cell p3TP-Lux reporter assay; type: cell-based; details: TGFβ1-mediated luciferase production, read-out: IC50 (SE), Mv1Lu p3TP-Lux
Protocol: The TGFβ-responsive p3TP-Lux reporter construct was stably expressed in Mv1Lu mink lung epithelial cells. […] Media was replaced with 0.5% FBS/DMEM and incubated at 37C/5% CO2 for 2 hours. […] The following day, cells were washed with PBS and lysed with lysis buffer by incubating for 20 to 30 minutes at room temperature. Counts were taken on the MicroBeta JET by injecting 50 μL Luciferase Assay Reagent II (PROMEGA), delay for 1 second and count for 5 seconds. Curve fitting utilized a 4-parameter logistic model and absolute IC50 values were reported.

pSMAD in PBMC = experiment: 13762 rat tumor model, ex vivo stimulated PBMC pSMAD; type: in vivo, Fischer 344 rats; details: Table 4, read-out: IC50 of pSMAD (%CV)
Protocol: Fischer 344 rats from Taconic Farms weighing 150 to 160 grams were acclimatized for 1 week prior to study initiation and had ad libitum access to food. Rats were shaved in the implant area then given a subcutaneous flank injection of 5 × 10^6 13762 rat mammary carcinoma cells in a 1:1 (v/v) mixture with Matrigel in media. […] Tumor, PBMCs, and plasma were collected at 0.5, 1, 1.5, 2, 4, 8, 16, and 24 hours for further analysis.
Ex vivo stimulation and assessment of target modulation in PBMCs have been described in detail previously. Briefly, whole blood (2 to 3 mL) was collected by cardiac puncture from Fischer 344 rats and transferred to BD Vacutainer CPT sodium citrate tubes. PBMCs isolated from whole blood were stimulated with TGFβ1 at a final concentration of 100 pM at 37°C for one hour. Cells were washed with cold PBS and lysed in 50-100 μL of lysis buffer, and pSMAD and tSMAD levels were assessed by immunoblot assay as described above.
For correlation of pSMAD modulation in 13762 rat mammary carcinoma tumors and PBMCs, data were normalized using an analysis of co-variance of log pSMAD versus log tSMAD and treatment group. The slope (b) from this analysis was used to normalize the pSMAD values using pSMAD/(tSMAD)^b. Percent inhibition was calculated by the following formula: 100-(y/x)*100 where y = normalized pSMAD value and x = mean normalized pSMAD in the vehicle control. […]

[6] = tested on: TGFβ ligand (SMAD2/3-responsive promoter); experiment: Cell based luciferase reporter assay (SMAD2/3), TGFβ-stimulated HEK293_SMAD2/3 cells; details: Homo sapiens; TGFβ1 2 nM stimulated HEK293_SMAD2/3
pSMAD in Mv1Lu cells = experiment: Endogenous pSMAD inhibition in TGFβ1 stimulated Mv1Lu cells; type: cell-based, mink; details: data not shown
[7] = 75 mg/kg twice daily, data not shown

Question: With `Cc1cccc(-c2nn3c(c2-c2ccnc4ccc(C(N)=O)cc24)CCC3)n1.O` [galunisertib, 4-[2-(6-methylpyridin-2-yl)-5,6-dihydro-4H-pyrrolo[1,2-b]pyrazol-3-yl]quinoline-6-carboxamide monohydrate] as the compound, how does the tumor growth delay ([1]; 75 mg/kg twice daily oral gavage, 1500 mm^3 crossing time, p = 0.014) read?
Answer: 10.3 ± 4.3 days

Question: And the body weight [1, 7]?
Answer: No body weight loss

Question: What about the IC50 (pSMAD in NIH3T3 cells) of the same compound?
Answer: 64 nM

Question: What about the “inhibition against all 65 targets” value [2] of the same compound?
Answer: < 25%

Question: And the tumor growth delay ([3]; 75 mg/kg twice daily oral gavage, 500 mm^3 crossing time, p = 0.034)?
Answer: 8.3 ± 2.6 days

Question: What about the body weight [3, 7] of the same compound?
Answer: No body weight loss

Question: What about the “clinical activity, phase I” value [4] of the same compound?
Answer: promising activity

Question: What about the “anti-tumor effect (tumor volume)” value (U87MG xenograft tumors) of the same compound?
Answer: modest anti-tumor effect

Question: What about the TGFβ1-enhanced cell migration (U87MG glioblastoma cells; 1, 3, 10 μM, rhTGFβ1 10 ng/ml, 48 hours) of the same compound?
Answer: blocked cell migration in a dose dependent manner

Question: And the “baseline migration in the absence of exogenous TGFβ1” value (U87MG glioblastoma cells; galunisertib alone)?
Answer: reduced baseline migration

Question: What about the IC50 ([5]; Mv1Lu) of the same compound?
Answer: 251 nM

Question: What about the IC50 [5] of the same compound?
Answer: 250 nM

Question: What about the IC50 (pSMAD in PBMC) of the same compound?
Answer: 1960 nM

Question: What about the IC50 [6] of the same compound?
Answer: 221 nM

Question: And the IC50 (pSMAD in Mv1Lu cells)?
Answer: 176 nM
